This note sets out measurements from US8865656B2, “Beta-hairpin peptidomimetics having CXCR4 antagonizing activity” (Polyphor AG, priority 2009, dated 2014).

What is called IC50 is the concentration needed to halve the response being measured. Usually GI50 stands for the concentration giving 50% growth inhibition.

One series addresses T1, human CXCR4 (Homo sapiens, UniProt P61073).
T1 construct: expressed in transfected cells; host or cells: mouse pre-B cell line 300-19
Nature of the series: Ca2+-assay: CXCR4-antagonizing activity (SDF-1 induced calcium mobilization). Particulars: mouse pre-B cell line 300-19 stably transfected with human CXCR4, read-out: IC50% [nM] ± SD, CXCR4 receptor. Format: cell-based. From the text: 2.3. Ca^2+-Assay: CXCR4-Antagonizing Activity of the Peptides
Increases in intracellular calcium were monitored using a Flexstation 384 (Molecular Devices, Sunnyvale, Calif.) to assay the depsipeptides for CXCR4 antagonism in a mouse pre-B cell line 300-19 stably transfected with human CXCR4 (E. Oberlin, A. Amara, F. Bachelerie, C. Bessia, J.-L. Virelizier, F. Arenzana-Seisdedos, O. Schwartz, J.-M. Heard, I. Clark-Lewis, D. F. Legler, M. Loetscher, M. Baggiolini, B. Moser, Nature 1996, 382, 833-835; M. Loetscher, T. Geiser, T. O'Reilly, R. Zwalen, M. Baggiolini, B. Moser, J. Biol. Chem. 1994, 269, 232-237; M. D'Apuuo, A. Rolink, M. Loetscher, J. A. Hoxie, I. Clark-Lewis, F. Melchors, M. Baggiolini, B. Moser, Eur. J. Immunol. 1997, 27, 1788-1793). The cells were batch loaded with the Calcium 4 Assay kit (Molecular Devices) in assay buffer (Hanks Balanced salt solution [HBSS], 20 mM HEPES, pH 7.4, 0.1% BSA) for 1 h at room temperature and labeled cells were dispensed into black 96 well assays plates (Costar No. 3603). Calcium mobilization induced by stromal-derived factor-1 (SDF-1) was measured in the Flexstation 384 (excitation: 485 nm; emission: 525 nm) for 90 seconds. Antagonist activity of peptides was determined by spiking the cells with compounds prior to SDF-1 addition. Dose response curves (compound concentration versus % maximum response for SDF-1) were determined for each antagonist and IC50 values were calculated by fitting the data to a four parameter logistic equation using SoftmaxPro 4.8 (Molecular Devices).
Background: Calcium assays in cells follow changes in intracellular calcium, usually with a dye or a luminescent sensor.

The nature of series [1]: in vitro. The format is cell-based. As to the method: (§1) The cytotoxicity of the depsipeptides to HELA cells (Acc57) and COS-7 cells (CRL-1651) was determined using the MTT reduction assay (T. Mossman, J. Immunol. Meth. 1983, 65, 55-63; M. V. Berridge, A. S. Tan, Arch. Biochem. Biophys. 1993, 303, 474-482). Briefly, the method was as follows: 7000 HELA cells/well and 4500 COS-7 cells/well were seeded and grown in 96-well microtiter plates for 24 h at 37° C. at 5% CO2. Thereafter, time zero (Tz) was determined by MTT reduction (see below). The supernatant of the remaining wells was discarded, and fresh medium and compounds in serial dilutions (12.5, 25 and 50 μM, triplicates) were pipetted into the wells. After incubation of the cells for 48 h at 37° C. at 5% CO2 the supernatant was discarded again and 100 μL MTT reagent (0.5 mg/mL in RPMI1640 and DMEM, respectively)/well was added. Following incubation at 37° C. for 2 h the media were aspirated and the cells were spiked (100 μL isopropanol/well). The absorbance of the solubilized formazan was measured at 595 nm (OD595peptide). For each concentration averages were calculated from triplicates. The percentage of growth was calculated as follows: (OD595peptide-OD595Tz-OD595Empty well)/(OD595Tz-OD595Empty well)×100%. The GI50 (Growth Inhibition) concentrations were calculated for each depsipeptide by using a trend line function for the concentrations (50, 25, 12.5 and 0 μM), the corresponding percentages and the value 50, (=TREND (C50:C0, %50:%0, 50).

Series [2] in a line: in vitro. The format is cell-based. As to the method: as §1
The source holds these as a separate data set.

The subject of series [3] is human red blood cells (hRBC). Particulars: red cells of human, 1 h. As to the method:
The peptides were tested for their hemolytic activity against human red blood cells (hRBC). Fresh hRBC were washed three times with phosphate buffered saline (PBS) and centrifuged for 10 min at 2000×g. Compounds (100 μM) were incubated with 20% hRBC (v/v) for 1 h at 37° C. The final erythrocyte concentration was approximately 0.9×10^9 cells/mL. A value of 0% and 100% cell lyses, respectively, was determined by incubation of hRBC in the presence of PBS alone and 0.1% Triton X-100 in H2O, respectively. The samples were centrifuged, the supernatants were 20-fold diluted in PBS buffer and the optical densities (OD) were measured at 540 nm.
Percent hemolysis was calculated as follows: (OD540peptide/OD540H2O)×100%.

A short description of series [4]: Plasma stability in human plasma. As to the method:
(§2) The stability of the peptides in human and mouse plasma was determined by applying the following method: 315 μL/deep well of freshly thawed human plasma (Basler Blutspende-dienst) and mouse plasma (Harlan Sera-Lab, UK), respectively, were spiked with 35 μL/well of compound in PBS (100 μM, triplicate) and incubated at 37° C. […] Following shaking for 2 min the occurred suspensions were filtrated by vacuum and finally, 100 μL of each filtrate were transferred to a propylene microtiter plate, and analyzed by LC/MS as follows: Column: Waters, XBridge C18, mobile phases: (A) water+0.1% formic acid and (B) acetonitrile/water, 95/5 (v/v)+0.1% formic acid, gradient: 5%-100% (B) in 2 minutes, electrospray ionization, MRM detection (triple quadrupole). The peak areas were determined and triplicate values are averaged. The stability is expressed in percent of the initial value at t=0. (tx/to×100). By using the TREND function of EXCEL (Microsoft Office 2003) T1/2 were determined.

Series [5] can be described thus: Plasma stability in mouse plasma. On the procedure:
as §2

Setting [6] is: human plasma, 37° C., sampling up to 240 min.
Setting [7] is: mouse plasma, 37° C., sampling up to 240 min.

Read-outs that look alike come from different tables or passages of the source. Starred links: 1 amine or outer side, 2 acyl side, 3 side chain; linkers in the order of their positions; H or OH if unused. Positions of bridges follow the written chain, without caps; N, C: chain ends. Non-standard residues stand in square brackets, D forms with d. Residues, ends and D or L forms follow the SMILES beside them. X2 = O=C(CC[C@H](Cc1ccc(O)cc1)N[*:1])[*:2]; Oic = O=C(O)[C@@H]1C[C@@H]2CCCC[C@@H]2N1; X1 = O=C(C(O)CCN[*:1])[*:2]; β3hS = N[C@@H](CO)CC(=O)O; Dab = NCC[C@H](N)C(=O)O

T1 sequence (P61073 whole entry): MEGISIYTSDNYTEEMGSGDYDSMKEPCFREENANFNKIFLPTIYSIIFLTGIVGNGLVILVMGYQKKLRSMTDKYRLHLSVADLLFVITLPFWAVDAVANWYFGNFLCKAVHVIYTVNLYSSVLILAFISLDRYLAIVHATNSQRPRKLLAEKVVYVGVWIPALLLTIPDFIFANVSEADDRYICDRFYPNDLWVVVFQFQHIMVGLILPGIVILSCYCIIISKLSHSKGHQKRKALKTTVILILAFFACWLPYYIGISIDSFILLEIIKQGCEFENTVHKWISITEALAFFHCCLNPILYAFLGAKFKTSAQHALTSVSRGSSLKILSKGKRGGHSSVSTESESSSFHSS

As to `CC[C@@H](C)[C@H]1NC(=O)[C@H](CCCCN)NC(=O)[C@H](CCC(N)=O)NC(=O)[C@H](Cc2ccc(O)cc2)NC(=O)[C@@H]2CSSC[C@H](NC(=O)[C@H](C)NC(=O)[C@H](Cc3c[nH]cn3)NC(=O)[C@H](Cc3ccc(O)cc3)NC(=O)[C@@H]3CCCN3C1=O)C(=O)N[C@@H](CO)C(=O)N[C@@H](C)C(=O)N[C@H](Cc1c[nH]c3ccccc13)C(=O)N[C@@H](CCN)C(=O)N[C@@H](CCCNC(=N)N)C(=O)N[C@@H](Cc1ccc(O)cc1)C(=O)N2` [compound 11], the IC50 at human CXCR4 is 0.17 ± 0.02 nM. The GI50 in “in vitro [1]” (human) and in “in vitro [2]” (African green monkey) was over 50 µM in each case. The “Hemolysis at 100 μM” value in series [3] is given as 1.7%. Moreover, the “Plasmastability human pl. T1/2” value in series [4] (setting [6]) stood at 4 h. Besides, the “Plasmastability mouse pl. T1/2” value in series [5] (setting [7]) amounted to 4 h.

In the case of `C[C@@H]1NC(=O)[C@H](CO)NC(=O)[C@@H]2CSSC[C@H](NC(=O)[C@H](Cc3ccc(O)cc3)NC(=O)[C@H](CCCNC(=N)N)NC(=O)[C@H](CCN)NC(=O)[C@@H](Cc3ccc(O)cc3)NC1=O)C(=O)N[C@@H](Cc1ccc(O)cc1)C(=O)N[C@@H](CCC(N)=O)C(=O)N[C@@H](CCCCN)C(=O)N(C)[C@H](C)C(=O)N1CCC[C@H]1C(=O)N[C@@H](Cc1ccc(O)cc1)C(=O)N[C@@H](Cc1c[nH]cn1)C(=O)N[C@@H](C)C(=O)N2` [compound 12], at human CXCR4, the IC50 stood at 0.1 ± 0.02 nM. For the same compound, the concentration for 50% growth inhibition (GI50) in the series “in vitro [1]” (human) and in “in vitro [2]” (African green monkey) was over 50 µM each time. The “Hemolysis at 100 μM” value in series [3] is 0.9%. The “Plasmastability human pl. T1/2” value in series [4] (setting [6]) is 4 h. For the same compound, the “Plasmastability mouse pl. T1/2” value in series [5] (setting [7]) is 4 h.

Regarding `C[C@@H]1NC(=O)[C@H](Cc2c[nH]cn2)NC(=O)[C@H](Cc2ccc(O)cc2)NC(=O)[C@@H]2C[C@@H]3CCCC[C@@H]3N2C(=O)[C@H]2CCCN2C(=O)[C@H](CCCCN)NC(=O)[C@H](CCC(N)=O)NC(=O)[C@H](Cc2ccc(O)cc2)NC(=O)[C@@H]2CSSC[C@H](NC1=O)C(=O)N[C@@H](CO)C(=O)N[C@@H](C)C(=O)N1CCC[C@@H]1C(=O)N[C@@H](CCN)C(=O)N[C@@H](CCCNC(=N)N)C(=O)N[C@@H](Cc1ccc(O)cc1)C(=O)N2` [compound 16] (cyclo(ACSA[dP][Dab]RYCYQK[dP][Oic]YH); disulfide 2-9), the IC50 at human CXCR4 was 1.46 ± 1.6 nM. Also, the GI50 in the series “in vitro [1]” (human) and in “in vitro [2]” (African green monkey) was over 50 µM throughout. Also, in series [3], the “Hemolysis at 100 μM” value came to 0.5%. The “Plasmastability human pl. T1/2” value in series [4] (setting [6]) was 4 h. Also, the “Plasmastability mouse pl. T1/2” value in series [5] (setting [7]) was 4 h.

With `C[C@@H]1NC(=O)[C@H](Cc2c[nH]cn2)NC(=O)CC[C@H](Cc2ccc(O)cc2)NC(=O)[C@@H]2CCCN2C(=O)[C@H]2CCCN2C(=O)[C@H](CCCCN)NC(=O)[C@H](CCC(N)=O)NC(=O)[C@H](Cc2ccc(O)cc2)NC(=O)[C@@H]2CSSC[C@H](NC1=O)C(=O)N[C@@H](CO)C(=O)N[C@@H](C)C(=O)N1CCC[C@@H]1C(=O)N[C@@H](CCN)C(=O)N[C@@H](CCCNC(=N)N)C(=O)N[C@@H](Cc1ccc(O)cc1)C(=O)N2` [compound 18] (cyclo([X2]HACSA[dP][Dab]RYCYQK[dP]P); disulfide 4-11), the IC50 at human CXCR4 was 0.39 ± 0.5 nM. Also, the concentration for 50% growth inhibition (GI50) in the series “in vitro [1]” (human) and in the series “in vitro [2]” (African green monkey) was over 50 µM throughout. Further, the “Hemolysis at 100 μM” value in series [3] was determined as 1.4%. In addition, in series [4] (human, plasma, 10 μM), the “Plasmastability human pl. T1/2” value was found to be 4 h. Moreover, in series [5] (mouse, plasma, 10 μM), the “Plasmastability mouse pl. T1/2” value is 4 h.

Regarding `C[C@@H]1NC(=O)[C@H](Cc2c[nH]cn2)NC(=O)[C@H](Cc2ccc(O)cc2)NC(=O)[C@@H]2CCCN2C(=O)[C@H]2CCCN2C(=O)[C@H](CCCCN)NC(=O)[C@H](CCC(N)=O)NC(=O)[C@H](Cc2ccc(O)cc2)NC(=O)[C@@H]2CSSC[C@H](NC1=O)C(=O)NCCC(O)C(=O)N[C@@H](C)C(=O)N1CCC[C@@H]1C(=O)N[C@@H](CCN)C(=O)N[C@@H](CCCNC(=N)N)C(=O)N[C@@H](Cc1ccc(O)cc1)C(=O)N2` (stereo partly drawn) [compound 19] (cyclo(YHAC[X1]A[dP][Dab]RYCYQK[dP]P); disulfide 4-11), the IC50 on human CXCR4 worked out at 1.1 ± 0.6 nM. The GI50 in “in vitro [1]” and in “in vitro [2]” was over 50 µM in each case. Further, in series [3], the “Hemolysis at 100 μM” value came out at 1.8%. In addition, in series [4] (human, plasma), the “Plasmastability human pl. T1/2” value stood at 4 h. Also, the “Plasmastability mouse pl. T1/2” value in series [5] (mouse, plasma) came to 4 h.

For the compound `C[C@@H]1NC(=O)[C@H](Cc2c[nH]cn2)NC(=O)[C@H](Cc2ccc(O)cc2)NC(=O)[C@@H]2CCCN2C(=O)[C@H]2CCCN2C(=O)[C@H](CCCCN)NC(=O)[C@H](CCC(N)=O)NC(=O)[C@H](Cc2ccc(O)cc2)NC(=O)[C@@H]2CSSC[C@H](NC1=O)C(=O)N[C@@H](CO)CC(=O)N[C@@H](C)C(=O)N1CCC[C@@H]1C(=O)N[C@@H](CCN)C(=O)N[C@@H](CCCNC(=N)N)C(=O)N[C@@H](Cc1ccc(O)cc1)C(=O)N2` [compound 20] (cyclo(YHAC[β3hS]A[dP][Dab]RYCYQK[dP]P); disulfide 4-11), on human CXCR4, the IC50 was determined as 2.66 ± 2.2 nM. Further, the GI50 in “in vitro [1]” (human) and in “in vitro [2]” (African green monkey) was over 50 µM each time. For the same compound, the “Hemolysis at 100 μM” value in series [3] came out at 0.6%. In addition, the “Plasmastability human pl. T1/2” value in series [4] (human, plasma, 10 μM) amounted to 4 h. Further, in series [5] (mouse, plasma, 10 μM), the “Plasmastability mouse pl. T1/2” value was 4 h.
